1 compound from patent US20220411422A1, “ERBB RECEPTOR INHIBITORS” (Dizal (Jiangsu) Pharmaceutical Co., Ltd., priority 2018, published 2022) can be followed below.

The test system of data set [1] is BT474 SC, BM and LM xenograft models. Nature of the data set: In vivo anti-tumor potency in SC, BM and LM xenograft mouse models.
For another data set, the target named is T1, pHER2 in tumor tissue (Homo sapiens, UniProt P04626).
T1 construct: The SC, BM and LM models with HER2 overexpression; from tissue; host or cells: BT474cl subcutaneous xenograft tumour in mice
Nature of the data set: PK/PD relationship in BT474cl SC model. It counts as in vivo, mouse. The procedure: The SC, BM and LM models with HER2 overexpression were treated with the Compound 6 at dosages of 25 mg/kg, 50 mg/kg, 100 mg/kg and 150 mg/kg. […] Moreover, the Compound 6 at dosages of 6.25 mg/kg, Capecitabine (400 mg/kg), T-DM1 (15 mg/kg), Compound 6 (6.25 mg/kg) in combination with Capecitabine (400 mg/kg) or T-DM1 (15 mg/kg) were used to treat the SC, and BM models with HER2 overexpression to check the tumor regression effect of Compound 6 in combination with other anti-cancer agent. […] Moreover, the PK and PD of Compound 6 in BT474cl SC model were tested.

Data set [2] is described as follows: Clinical plasma and CSF PK in HER2+ MBC patients. It counts as in vivo, human. The procedure:
The plasma concentration of Compound 6 at the dosage of 50 to 200 mg following single dose or multiple doses were tested. […] In patients with BM, averaged Kpuu,CSF was around 1.82 and 0.78 for Compound 6 and its active metabolite Compound 16, respectively.

The test system of data set [3] is Human Pgp/BCRP transporter. Nature of the data set: Human Pgp/BCRP transporter substrate assessment. In kind it is in vitro ADME.
In a further data set the target is T2, wild type EGFR (Homo sapiens, UniProt P00533).
T2 construct: which expresses wild type EGFR protein; endogenous in cells; host or cells: A431
Kind of data set: pEGFR cellular activity in A431 cell line. It counts as cell-based. As to the method: A compound's activity of inhibition for EGFR WT can be evaluated with NCI-H838 (ATCC® CRL-5844™) and A431 cell line (the epidermoid carcinoma cell line A-431), which expresses wild type EGFR protein as the count screening to define the selectivity of the compound.
The compounds' inhibition of target modulation were determined as follows: NCI-H838 cells and A431 cells were sorted in 96 well plates (20000 cells/well) with the DMEM medium containing 1% FBS overnight and then treated with tested compounds at a series of concentrations (3 μM, 0.3 μM, 0.1 μM, 0.03 μM, 0.01 μM, 0.003 μM, 0.001 μM, 0.0001 μM). The plates were incubated for 4 h at 37° C. with 5% CO2 followed by the stimulation of recombinant hEGF (100 ng/ml for 10 Min, RD, Cat #236-EG) and then the EGFR (Y1068) phosphorylation level of cells in each well were measured with MSD Kit (MULTI-SPOT®96 4-Spot HB Prototype EGFR Triplex […]: pEGFR (Tyr1068), pEGFR (Tyr1173), Total EGFR (Cat #N45ZB-1). The assay is a electrochemiluminescent method (MESO SCALE DISCOVERY) for determining both phosphorylated and total EGFR of cells with an MSD SECTOR® Imager and then the ratio of p-EGFR/total EGFR can be generated by the machine. The percentage of inhibition was used the formula: % inhibition=100×[1−(ratio of sample well−ratio of Min ctrl well)/(ratio of Max−Ratio of Min ctrl well)]. […]

A short description of data set [4]: Blood brain barrier penetration assay in monkeys. In kind it is in vivo. Conditions: CSF, oral; Table 5; monkey. As to the method: In vitro blood, plasma and brain binding assay was carried out with equilibrium dialysis device. Diluted blood (1:1 with DPBS pH7.4), EDTA-anticoagulated plasma, and brain homogenate (1:3 with DPBS pH7.4) were spiked with 5 μM test compound (in triplicate) and dialyzed against equal volume of 150 μL 100 mM PBS buffer (pH7.4) at 37° C. for appropriate equilibration time in a slowly rotated plate. At the end of incubation, a 50 μL aliquot from the receiver side and a 5 μL from the donor chamber were taken. The 5 μL sample was further diluted with 45 μL of blank blood, plasma or brain homogenate. […] After centrifuging at 4000 rpm for 20 min, supernatant was diluted with 0.1% formic acid aqueous solution and analyzed for LC/MS/MS (API 4000, Applied Biosystems, Foster City). Unbound fraction (fu) of test compound were calculated by the ratio of the buffer side response to the brain homogenate/plasma/blood side response, and unbound fraction (fu,bl, fu,pl and fu,br) of test compound in non-diluted blood and tissue were calculated from measured fu in homogenate and diluted blood with the following equation: fu,bl (fu,br)=(1/D)/[(1/fu−1)+1/D)]. […]
Total brain levels, expressed as brain/blood ratio (Kp,brain) were measured by AUC(brain)/AUC(blood or plasma) in rodents after oral administration. […]
Kp,uu brain and Kp,uu CSF was calculated by the following equation: […]

Entries after “also recorded” stand apart in the source; their conditions may differ.

T1 sequence (P04626 23-1255): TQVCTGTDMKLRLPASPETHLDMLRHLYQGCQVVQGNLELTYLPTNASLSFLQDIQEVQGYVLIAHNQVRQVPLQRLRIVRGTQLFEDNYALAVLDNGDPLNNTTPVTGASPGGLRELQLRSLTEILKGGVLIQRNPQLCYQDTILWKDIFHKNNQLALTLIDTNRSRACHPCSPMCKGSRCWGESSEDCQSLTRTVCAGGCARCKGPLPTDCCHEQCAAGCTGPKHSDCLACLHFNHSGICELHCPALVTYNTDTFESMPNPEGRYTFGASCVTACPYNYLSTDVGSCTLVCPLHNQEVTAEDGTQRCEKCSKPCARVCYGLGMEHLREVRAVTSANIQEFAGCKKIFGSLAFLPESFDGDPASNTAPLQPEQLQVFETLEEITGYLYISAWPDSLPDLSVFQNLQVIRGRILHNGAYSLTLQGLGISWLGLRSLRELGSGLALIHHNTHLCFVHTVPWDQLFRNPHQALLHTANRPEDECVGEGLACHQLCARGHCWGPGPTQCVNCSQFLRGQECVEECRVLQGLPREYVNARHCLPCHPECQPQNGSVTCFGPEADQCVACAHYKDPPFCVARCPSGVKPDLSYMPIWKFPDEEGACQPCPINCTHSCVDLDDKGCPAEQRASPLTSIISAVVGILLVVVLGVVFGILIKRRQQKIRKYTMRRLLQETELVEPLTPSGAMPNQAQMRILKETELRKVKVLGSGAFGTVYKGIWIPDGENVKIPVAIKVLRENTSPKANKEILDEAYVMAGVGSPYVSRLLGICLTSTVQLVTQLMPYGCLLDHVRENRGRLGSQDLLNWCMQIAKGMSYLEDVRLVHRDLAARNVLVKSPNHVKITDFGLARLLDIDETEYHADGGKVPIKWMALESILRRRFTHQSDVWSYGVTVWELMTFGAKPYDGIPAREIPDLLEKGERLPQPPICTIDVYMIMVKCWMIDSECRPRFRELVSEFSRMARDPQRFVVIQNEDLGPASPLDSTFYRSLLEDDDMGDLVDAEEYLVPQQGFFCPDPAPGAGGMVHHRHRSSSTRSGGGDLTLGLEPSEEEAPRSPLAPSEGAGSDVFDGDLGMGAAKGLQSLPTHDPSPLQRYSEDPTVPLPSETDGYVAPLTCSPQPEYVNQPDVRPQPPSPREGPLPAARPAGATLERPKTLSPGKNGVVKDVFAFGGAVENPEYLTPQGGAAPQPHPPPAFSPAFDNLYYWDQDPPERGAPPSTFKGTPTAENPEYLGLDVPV
T2 sequence (P00533 25-1210): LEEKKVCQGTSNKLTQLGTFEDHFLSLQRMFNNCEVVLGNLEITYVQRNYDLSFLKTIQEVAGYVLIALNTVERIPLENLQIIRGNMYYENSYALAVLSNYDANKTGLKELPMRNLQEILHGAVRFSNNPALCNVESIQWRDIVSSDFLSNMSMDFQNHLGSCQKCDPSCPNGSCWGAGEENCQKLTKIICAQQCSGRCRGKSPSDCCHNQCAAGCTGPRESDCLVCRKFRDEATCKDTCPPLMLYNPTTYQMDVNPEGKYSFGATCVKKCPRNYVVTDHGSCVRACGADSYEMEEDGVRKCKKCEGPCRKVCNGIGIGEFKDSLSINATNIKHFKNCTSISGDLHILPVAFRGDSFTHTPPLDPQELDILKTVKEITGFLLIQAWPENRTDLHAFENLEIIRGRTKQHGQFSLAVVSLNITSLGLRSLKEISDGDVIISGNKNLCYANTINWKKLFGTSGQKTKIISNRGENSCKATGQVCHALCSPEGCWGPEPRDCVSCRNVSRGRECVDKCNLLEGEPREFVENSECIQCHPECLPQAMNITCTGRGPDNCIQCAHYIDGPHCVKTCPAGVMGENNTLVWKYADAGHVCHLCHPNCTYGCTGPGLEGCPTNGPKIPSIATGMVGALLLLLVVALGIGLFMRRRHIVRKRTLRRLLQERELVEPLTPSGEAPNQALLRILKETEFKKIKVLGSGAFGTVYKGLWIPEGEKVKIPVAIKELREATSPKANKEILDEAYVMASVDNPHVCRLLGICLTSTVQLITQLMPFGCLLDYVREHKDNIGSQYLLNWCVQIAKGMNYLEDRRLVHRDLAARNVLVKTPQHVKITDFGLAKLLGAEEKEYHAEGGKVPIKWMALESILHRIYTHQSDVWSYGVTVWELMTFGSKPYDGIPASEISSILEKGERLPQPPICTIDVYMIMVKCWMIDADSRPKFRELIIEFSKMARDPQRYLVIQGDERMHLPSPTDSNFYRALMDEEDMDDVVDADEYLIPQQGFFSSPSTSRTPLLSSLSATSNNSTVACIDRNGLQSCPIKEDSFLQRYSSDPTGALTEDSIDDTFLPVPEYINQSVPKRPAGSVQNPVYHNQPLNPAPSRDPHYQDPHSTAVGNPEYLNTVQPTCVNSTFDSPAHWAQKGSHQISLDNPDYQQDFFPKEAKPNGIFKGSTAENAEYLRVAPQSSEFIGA

In the case of `COc1cc(O[C@H]2CCN(C)CC2(F)F)c2c(Nc3ccc(Oc4ccn5ncnc5c4)c(C)c3)ncnc2c1` (single isomer, unassigned) [Compound 6], the “anti-tumor activity compared to Tucatinib, Neratinib and Pyrotinib” value in data set [1] (BM and LM models) is “superior to Tucatinib, Neratinib and Pyrotinib”; in data set [1] (SC model), “comparable to them”. Besides, in data set [1] (BT474 SC, BM and LM xenograft models, 25-150 mg/kg), the “anti-tumor activity, monotherapy” value is given as “potent anti-tumor activity; also recorded: profound tumor regression”. Moreover, the “relationship between plasma concentration and pHER2 inhibition in tumor tissue” value on pHER2 in tumor tissue was “positive correlation”. Further, the Kp uu was ~1.82 in data set [2] (human, CSF, oral, patients with BM, read-out: averaged Kpuu,CSF) and 4.1 in data set [4]. Further, the half-life in data set [2] (human, plasma, patients, single oral dose, read-out: terminal half-life (converted)) was ~18 h. The accumulation entry in data set [2] (patients, 15-day repeat dosing) is on record as “Around 2 fold”. The “drug exposure versus dose” value in data set [2] (patients, 50 to 200 mg) is listed as “increased in a dose proportional manner”. Moreover, in data set [2] (patients, doses ≥100 mg bid), the “free trough concentration versus pHER2 IC50 of BT474cl cells” value is given as “above pHER2 IC50 of BT474cl cells”. The “Human Pgp/BCRP transporter substrate” value in data set [3] is reported as “No”. On wild type EGFR, this compound displayed an IC50 of 1460 nM.

Broadly, the half-life is how long it takes for the measured level to halve. The IC50 is the concentration that gives 50% inhibition.
